“Also recorded” adds a separate entry of the source.
Experiments:
[1] = Study 204953 Part 1A: single doses 50-250 mg API PiB with RTV, healthy subjects; assay type: in vivo, human; conditions: for Cmax / Tmax / concentration at 24 h / AUC / half-life: human, plasma, oral; for Tmax / concentration at 24 h: median (range); for concentration at 24 h: read-out: C24; for AUC: read-out: AUC(0‐∞); for half-life: read-out: t½ (converted); for dose proportionality of exposure (AUC and C max): single doses 50 to 250 mg with RTV
Description: This study was planned as an extension of the previously conducted single‐ and multiple‐dose escalation studies described above. It was a double‐blind, placebo‐controlled, single and repeat dose escalation study of micronized API GSK2838232 with RTV conducted in three parts (Part 1A, Part 1B, and Part 2).
In Part 1A, a cohort of subjects was given single doses of 50, 100, and 250 mg of GSK2838232 with RTV, following 2 days of RTV predosing, in a sequential dose‐escalation design. Part 1B studied the relative bioavailability of GSK2838232 given as 100 mg (2 × 50 mg) capsules versus the reference API (PiB) in a two‐period crossover design with RTV, following 2 days of RTV predosing. In Period 3, subjects took the capsule formulation and RTV with a moderate fat meal (30% of calories from fat).
(§1) Blood samples were taken via an indwelling cannula or by direct venipuncture, collected into a di‐potassium ethylenediaminetetraacetic acid (K2 EDTA) tube, and placed on wet ice. Samples were centrifuged at approximately 1500g for 10 minutes at approximately 4°C. Exactly 500 μL of the resulting plasma was transferred into labeled 1.4 mL Matrix TrakMate Tubes containing exactly 500 μL of 50 mmol/L citrate buffer, pH 4.0, and mixed well. When 500 μL of plasma was not able to be transferred, the ratio of plasma to citrate buffer was kept at 1:1. Buffered plasma samples were kept on ice and frozen at −70°C within 1 hour of collection. Plasma samples were analyzed for GSK2838232 using a validated analytical method based on protein precipitation, followed by high performance liquid chromatography with tandem mass spectrometry (HPLC/MS/MS) analysis.
(§2) Extracts were analyzed using HPLC (Shimadzu, Nexera, 30 series) and tandem mass spectrometry detection (HPLC‐MS/MS). The mass spectrometer used was an API‐5500 using IonSpray interface (500 V) in positive mode monitoring. The mass transitions were 809.5 to 255.1 and 816.5 to 262.1 for GSK2838232 and [2H7] GSK2838232 (the isotopically labeled internal standard), respectively. The chromatographic conditions utilized a Waters Acquity UPLC BEH C18 column (50 × 2.1 mm, 1.7 μm) with mobile phases consisting of 1 mmol/L ammonium formate:formic acid (100:0.005) (mobile phase A) and acetonitrile:formic acid (100:0.1) (mobile phase B) at a flow rate of 0.6 mL/min, with pump B at 63% held for 2 minutes. The assay was validated to have precision (%RSD) of 0.7%‐6.5% (within‐run) and 1.0%‐5.9% RSD (between‐run) and with accuracy (%bias) of 0.0%‐1.6%. […] The lower limit of quantification (LLQ) was 0.5 ng/mL, using a 50 μL aliquot of K2EDTA acidified plasma. The higher limit of quantification (HLQ) was 500 ng/mL.
(§3) The PK parameters were calculated by standard noncompartmental analysis based on actual sampling times using WinNonlin Version 6.3 or higher. Estimation of AUC used the linear up/log down trapezoidal rule.

[2] = Study 200912: single dose 100-200 mg, SDD versus nonmicronized API PiB, healthy subjects; assay type: in vivo, human; conditions: for Cmax / AUC / half-life / Tmax / concentration at 24 h: human, plasma, oral; for Cmax / AUC / half-life / Tmax / concentration at 24 h / CL/F: fasted; for Cmax / AUC / half-life / CL/F: geometric mean (95% CI); for AUC: read-out: AUC(0‐∞); for half-life: read-out: t½ (converted); for Tmax / concentration at 24 h: median (range); for concentration at 24 h: read-out: C24
Description: This was a double‐blind, randomized, placebo‐controlled, single‐dose escalation study to investigate the safety, tolerability, and PK of higher single doses of GSK2838232 (Part A) and to evaluate the relative bioavailability of the SDD and crystalline Active Pharmaceutical Ingredient (API) of GSK2838232 (Part B) in healthy subjects dosed as PiB.
Part A was originally planned as a double‐blind, randomized, placebo‐controlled, 4‐period, single‐dose escalation design. Subjects were randomized 3:1 to receive GSK2838232 or placebo. Periods 1 and 2 investigated dosing with 200 mg SDD or nonmicronized API. Further planned dosing of RTV‐boosted single doses of 20 mg and 50 mg SDD was not performed due to early termination of the study to evaluate a serious adverse event (SAE) of a cardiovascular nature (see Safety discussion).
Part B was conducted in a separate group of subjects and was not dependent on the results of Part A. This was a randomized, open‐label, 3‐period, crossover design to assess the relative bioavailability of the nonmicronized API PiB versus the original SDD formulation at a 100 mg dose level (Periods 1 and 2). […] Subjects were randomized 1:1 to each dosing sequence.
as §1, §2, §3

[3] = single 50 mg API PiB, fasted, with ritonavir (2 days predosing)
[4] = single 100 mg API PiB, fasted, with ritonavir (2 days predosing), geometric mean (95% CI)
[5] = single 100 mg API PiB, fasted, with ritonavir (2 days predosing)
[6] = single 250 mg API PiB, fasted, with ritonavir (2 days predosing), geometric mean (95% CI)
[7] = single 250 mg API PiB, fasted, with ritonavir (2 days predosing)
[8] = 20 mg, single 20 mg API PiB, with ritonavir (predosing 10 days), Study 200912
[9] = 100 mg, single 100 mg API PiB, without ritonavir, Study 200912
[10] = 100 mg, single 100 mg SDD PiB, without ritonavir, Study 200912
[11] = 200 mg, single 200 mg API PiB, without ritonavir, Study 200912
[12] = 200 mg, single 200 mg SDD PiB, without ritonavir, Study 200912

CC(C)C1=C2[C@H]3CC[C@@H]4[C@@]5(C)CC[C@H](OC(=O)CC(C)(C)C(=O)O)C(C)(C)[C@@H]5CC[C@@]4(C)[C@]3(C)CC[C@@]2([C@@H](O)CN(CCN(C)C)Cc2ccc(Cl)cc2)CC1=O [GSK2838232]
Cmax ([1]; single 50 mg API PiB, fasted, with ritonavir (2 days predosing), geometric mean (95% CI)): 15.7 ng/mL
Tmax [1, 3]: 3 h
concentration at 24 h [1, 3]: 7.26 ng/mL
Cmax [1, 4]: 24.7 ng/mL
AUC [1, 4]: 846 ng·h/mL
half-life [1, 4]: 17.9 h
Tmax [1, 5]: 5 h
concentration at 24 h [1, 5]: 13.2 ng/mL
Cmax [1, 6]: 63 ng/mL
AUC [1, 6]: 1690 ng·h/mL
half-life [1, 6]: 17.9 h
Tmax [1, 7]: 5.98 h
concentration at 24 h [1, 7]: 24 ng/mL
CL/F [1, 4]: 118 (93.3, 150) L/h
dose proportionality of exposure (AUC and C max) [1]: proportional PK; also recorded: proportional pharmacokinetics
dose proportionality of exposure (AUC and C max) ([1]; listed as GSK283832): generally dose proportional
dose proportionality of exposure ([2]; API, 100 mg to 200 mg single doses, Study 200912): proportional increase in exposure
Cmax [2, 8]: 4.89 ng/mL
AUC [2, 8]: 224 ng·h/mL
half-life [2, 8]: 41.1 h
Tmax [2, 8]: 5.01 h
concentration at 24 h [2, 8]: 2.56 ng/mL
Cmax [2, 9]: 6.15 ng/mL
AUC [2, 9]: 91.7 ng·h/mL
half-life [2, 9]: 12.5 h
Tmax [2, 9]: 3.64 h
concentration at 24 h [2, 9]: 2.02 ng/mL
Cmax [2, 10]: 18.7 ng/mL
AUC [2, 10]: 265 ng·h/mL
half-life [2, 10]: 16.9 h
Tmax [2, 10]: 2.75 h
concentration at 24 h [2, 10]: 3.87 ng/mL
Cmax [2, 11]: 13.6 ng/mL
AUC [2, 11]: 189 ng·h/mL
half-life [2, 11]: 15.9 h
Tmax [2, 11]: 2.76 h
concentration at 24 h [2, 11]: 2.85 ng/mL
Cmax [2, 12]: 29.3 ng/mL
AUC [2, 12]: 381 ng·h/mL
half-life [2, 12]: 16.6 h
Tmax [2, 12]: 1.75 h
concentration at 24 h [2, 12]: 5.18 ng/mL
CL/F ([2]; single 20 mg API PiB, with ritonavir (predosing 10 days), Study 200912): 89.2 (63.3, 126) L/h
CL/F ([2]; single 100 mg API PiB, without ritonavir, Study 200912): 1090 (670, 1774) L/h
CL/F ([2]; single 100 mg SDD PiB, without ritonavir, Study 200912): 378 (256, 559) L/h
CL/F ([2]; single 200 mg API PiB, without ritonavir, Study 200912): 1060 (686, 1638) L/h
CL/F ([2]; single 200 mg SDD PiB, without ritonavir, Study 200912): 525 (399, 690) L/h
dose proportionality of exposure ([2]; single doses 100 mg to 200 mg, SDD formulation, without RTV): less‐than‐proportional increase
